Measurements published in the supplement of paper PMC11208160.

assay: recombinant UMI read abundance after kanamycin selection (control-corrected) (log10(CPM+1)); higher = more efficient recombination; extreme values may be limits of the assay; sequences stand for … in AGTGCAGAGAAAATCGGCCAGTTTTCTCTGCCTGCAGTCCGCATGCCGTGGGACCCCTTGGGTTCTAACCTGTTGCCTAGATTTATGCAGCGGACTGCCTTTCTCCCAAAGTGATAAACCGG…AGGTTGGTTTCACT; site = the 11-nt donor
Procedure, shortened: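 Each donor and donor-binding-loop pair was tracked by a 12-nt UMI on a plasmid carrying a promoterless kanamycin gene. With a second plasmid supplying a fixed target and T7-inducible IS621 bridge recombinase, the pool was plated in Escherichia coli on IPTG (0.07 mM) plus kanamycin or unselected. Sequencing of recombinant UMIs across the donor–target junction gave counts expressed as log10(CPM+1) after replicate averaging and control-derived scaling.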
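Note: IS621 bridge recombinase in Escherichia coli cells against a fixed T5 target plasmid.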

Sequence	recombinant UMI read abundance (log10)
CGGGTTCCATGGACCGGTTTTCCCGGTAATCCGTATTTGAC (site CGGGTTCCTGT)	0.77
CGGTAGTCATGGACCGGTTTTCCCGGTAATCCGTATTTGCC (site CGGAAGTCTGG)	0.759
CGGTAGTCATGGACCGGTTTTCCCGGTAATCCGTATTTGCC (site CGGCAGTCTGG)	1.47
CGGTAGTCATGGACCGGTTTTCCCGGTAATCCGTATTTGCC (site CGGGAGTCTGG)	0
CGGTAGTCATGGACCGGTTTTCCCGGTAATCCGTATTTGCC (site CGGTAGTCTGG)	2.78
CGGTATACATGGACCGGTTTTCCCGGTAATCCGTATTTGTT (site CGGAATCCTAA)	0
CGGTATACATGGACCGGTTTTCCCGGTAATCCGTATTTGTT (site CGGTATACTAA)	1.62
CGGTATCCATGGACCGGTTTTCCCGGTAATCCGTATTTGAT (site CGGAATCCTAA)	0.00344
CGGTATCCATGGACCGGTTTTCCCGGTAATCCGTATTTGAT (site CGGTATCCTAT)	0.734
CGGTATCCATGGACCGGTTTTCCCGGTAATCCGTATTTGCC (site CGGTATCCTGG)	0
CGGTCATCATGGACCGGTTTTCCCGGTAATCCGTATTTGTT (site CGATCATCTAG)	0
CGGTCATCATGGACCGGTTTTCCCGGTAATCCGTATTTGTT (site CGGTCATCTAA)	0.27
CGGTCGACATGGACCGGTTTTCCCGGTAATCCGTATTTGGA (site CGGTCGACTTC)	0.112
CGGTGCGCATGGACCGGTTTTCCCGGTAATCCGTATTTGCC (site CGGTGCGCTGG)	1.48
CGGTGTCCATGGACCGGTTTTCCCGGTAATCCGTATTTGTT (site CGGAATCCTAA)	0.0121
CGGTGTCCATGGACCGGTTTTCCCGGTAATCCGTATTTGTT (site CGGTGTCCTAA)	0.0166
CGGTTAGCATGGACCGGTTTTCCCGGTAATCCGTATTTGTG (site CAGTTAGCTCA)	0.694
CGGTTAGCATGGACCGGTTTTCCCGGTAATCCGTATTTGTG (site CCGTTAGCTCA)	0
CGGTTAGCATGGACCGGTTTTCCCGGTAATCCGTATTTGTG (site CGGTTAGCTCA)	1.7
CGGTTAGCATGGACCGGTTTTCCCGGTAATCCGTATTTGTG (site CTGTTAGCTCA)	0.256
CGTACAACATGGACCGGTTTTCCCGGTAATCCGTATTTGGT (site CGTACAACTAC)	1.09
CGTAGCGCATGGACCGGTTTTCCCGGTAATCCGTATTTGTT (site CGTAGCGCTAA)	1.05
CGTCAGACATGGACCGGTTTTCCCGGTAATCCGTATTTGAG (site CGTAAGACTCT)	0.182

Sequence	recombinant UMI read abundance (log10)
CGTCAGACATGGACCGGTTTTCCCGGTAATCCGTATTTGAG (site CGTCAGACTCT)	1.16
CGTCAGACATGGACCGGTTTTCCCGGTAATCCGTATTTGAG (site CGTGAGACTCT)	0.016
CGTCAGACATGGACCGGTTTTCCCGGTAATCCGTATTTGAG (site CGTTAGACTCT)	0.0174
CGTCGACCATGGACCGGTTTTCCCGGTAATCCGTATTTGAT (site CGTCGACCTAT)	0.0862
CGTCGTACATGGACCGGTTTTCCCGGTAATCCGTATTTGCT (site CGACGTACTAG)	0.689
CGTCGTACATGGACCGGTTTTCCCGGTAATCCGTATTTGCT (site CGCCGTACTAG)	1.22
CGTCGTACATGGACCGGTTTTCCCGGTAATCCGTATTTGCT (site CGGCGTACTAG)	0.794
CGTCGTACATGGACCGGTTTTCCCGGTAATCCGTATTTGCT (site CGTCGTACTAG)	1.76
CGTCTCCCATGGACCGGTTTTCCCGGTAATCCGTATTTGAG (site CGTCTCCCTCT)	0.0129
CGTGAACCATGGACCGGTTTTCCCGGTAATCCGTATTTGAT (site CGAGAACCTAT)	0.0201
CGTGAACCATGGACCGGTTTTCCCGGTAATCCGTATTTGAT (site CGCGAACCTAT)	0
CGTGAACCATGGACCGGTTTTCCCGGTAATCCGTATTTGAT (site CGGGAACCTAT)	0
CGTGAACCATGGACCGGTTTTCCCGGTAATCCGTATTTGAT (site CGTGAACCTAT)	0.0133
CGTGACTCATGGACCGGTTTTCCCGGTAATCCGTATTTGCG (site CGTGACTCTCG)	2.74
CGTGACTCATGGACCGGTTTTCCCGGTAATCCGTATTTGTA (site CGTGACTCTTA)	3.02
CGTGAGTCATGGACCGGTTTTCCCGGTAATCCGTATTTGCC (site CGAGAGTCTGG)	1.79
CGTGAGTCATGGACCGGTTTTCCCGGTAATCCGTATTTGCC (site CGCGAGTCTGG)	0
CGTGAGTCATGGACCGGTTTTCCCGGTAATCCGTATTTGCC (site CGGGAGTCTGG)	0.694
CGTGAGTCATGGACCGGTTTTCCCGGTAATCCGTATTTGCC (site CGTGAGTCTGG)	1.97
CGTGAGTCATGGACCGGTTTTCCCGGTAATCCGTATTTGCG (site CGTGAGTCTCG)	2.58
CGTGCGGCATGGACCGGTTTTCCCGGTAATCCGTATTTGGA (site CGTGCGGCTTC)	0.167
CGTGCGTCATGGACCGGTTTTCCCGGTAATCCGTATTTGTA (site CGTGCGTCTTA)	2.34
CGTGGAACATGGACCGGTTTTCCCGGTAATCCGTATTTGGT (site CGTGGAACTAA)	0.427

Sequence	recombinant UMI read abundance (log10)
CGTGGAACATGGACCGGTTTTCCCGGTAATCCGTATTTGGT (site CGTGGAACTAC)	1.33
CGTGGAACATGGACCGGTTTTCCCGGTAATCCGTATTTGGT (site CGTGGAACTAG)	0
CGTGGAACATGGACCGGTTTTCCCGGTAATCCGTATTTGGT (site CGTGGAACTAT)	1.26
CGTGGCACATGGACCGGTTTTCCCGGTAATCCGTATTTGTT (site CGTGGAACTAA)	0.00865
CGTGGCACATGGACCGGTTTTCCCGGTAATCCGTATTTGTT (site CGTGGCACTAA)	0.862
CGTGGCACATGGACCGGTTTTCCCGGTAATCCGTATTTGTT (site CGTGGGACTAA)	0.00775
CGTGGCACATGGACCGGTTTTCCCGGTAATCCGTATTTGTT (site CGTGGTACTAA)	0.0209
CGTGTAACATGGACCGGTTTTCCCGGTAATCCGTATTTGTT (site CGTGAAACTAA)	0.00395
CGTGTAACATGGACCGGTTTTCCCGGTAATCCGTATTTGTT (site CGTGCAACTAA)	0.015
CGTGTAACATGGACCGGTTTTCCCGGTAATCCGTATTTGTT (site CGTGGAACTAA)	0.0109
CGTGTAACATGGACCGGTTTTCCCGGTAATCCGTATTTGTT (site CGTGTAACTAA)	0.811
CGTTAAGCATGGACCGGTTTTCCCGGTAATCCGTATTTGGC (site CGTTAAGCTGC)	1.73
CGTTACCCATGGACCGGTTTTCCCGGTAATCCGTATTTGCG (site CGTTACCCTCG)	0.477
CGTTAGACATGGACCGGTTTTCCCGGTAATCCGTATTTGAT (site CGTTAGACTAT)	1.58
CGTTAGACATGGACCGGTTTTCCCGGTAATCCGTATTTGAT (site CGTTAGACTCT)	0.00897
CGTTAGACATGGACCGGTTTTCCCGGTAATCCGTATTTGAT (site CGTTAGACTGT)	0
CGTTAGACATGGACCGGTTTTCCCGGTAATCCGTATTTGAT (site CGTTAGACTTT)	0.0167
CGTTATCCATGGACCGGTTTTCCCGGTAATCCGTATTTGCG (site CGTTATCCTCG)	0.766
CGTTCCACATGGACCGGTTTTCCCGGTAATCCGTATTTGTG (site CGTTCCACTCA)	0.0103
CGTTGACCATGGACCGGTTTTCCCGGTAATCCGTATTTGGA (site CGTTGACCTTC)	0.0127
CGTTGATCATGGACCGGTTTTCCCGGTAATCCGTATTTGCT (site CGATCATCTAG)	0.00695
CGTTGATCATGGACCGGTTTTCCCGGTAATCCGTATTTGCT (site CGTTGATCTAG)	2.78
